How the values were obtained:
Type in all cases: in vivo
corn (Zea mays) = assay: Test B pre/postemergence
Summary of the method: (§1)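 Plants treated pre- or postemergence were compared visually with controls after 13 to 15 days. Ratings ran from 0, no effect, to 100, complete control.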

[1] = tested on: morningglory (Ipomoea coccinea); assay: Test B pre/postemergence
Summary of the method: as §1

[2] = tested on: wheat (Triticum aestivum); assay: Test B pre/postemergence
Summary of the method: as §1

[3] = tested on: barnyardgrass (Echinochloa crus-galli); assay: Test B pre/postemergence
Summary of the method: as §1

[4] = tested on: lambsquarters (Chenopodium album); assay: Test B pre/postemergence
Summary of the method: as §1

[5] = tested on: velvetleaf (Abutilon theophrasti); assay: Test B pre/postemergence
Summary of the method: as §1

[6] = tested on: Surinam grass (Brachiaria decumbens); assay: Test B pre/postemergence
Summary of the method: as §1

[7] = tested on: cocklebur (Xanthium strumarium); assay: Test B pre/postemergence
Summary of the method: as §1

[8] = tested on: crabgrass (Digitaria sanguinalis); assay: Test B pre/postemergence
Summary of the method: as §1

[9] = tested on: pigweed (Amaranthus retroflexus); assay: Test B pre/postemergence
Summary of the method: as §1

[10] = tested on: giant foxtail (Setaria faberii); assay: Test B pre/postemergence
Summary of the method: as §1

rice (Oryza sativa) = assay: Test B flooded paddy test; conditions: Flood, 1000 g ai/ha; scale 0 to 100
Summary of the method: (§2)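 Visual injury scoring (0 = no effect, 100 = complete control) versus controls made 13 to 15 days after treatment in the greenhouse. Test species were grown in flooded paddy to the 2-leaf stage: rice, barnyardgrass, umbrella sedge, duck salad.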

[11] = tested on: duck salad (Heteranthera limosa); assay: Test B flooded paddy test; conditions: Flood, 1000 g ai/ha; scale 0 to 100
Summary of the method: as §2

[12] = tested on: barnyardgrass (Echinochloa crus-galli); assay: Test B flooded paddy test; conditions: Flood, 1000 g ai/ha; scale 0 (no effect) to 100 (complete control)
Summary of the method: as §2

[13] = tested on: umbrella sedge (Cyperus difformis); assay: Test B flooded paddy test; conditions: Flood, 1000 g ai/ha; scale 0 to 100
Summary of the method: as §2

wild oat (Avena fatua) = assay: Test B postemergence
Summary of the method: as §1

[14] = tested on: blackgrass (Alopecurus myosuroides); assay: Test B postemergence
Summary of the method: as §1

[15] = Postemergence, 125 g ai/ha, scale 0 to 100 (0 no effect, 100 complete control)
[16] = Postemergence, 500 g ai/ha, scale 0 to 100
[17] = Preemergence, 125 g ai/ha, scale 0 to 100 (0 no effect, 100 complete control)
[18] = Preemergence, 500 g ai/ha, scale 0 to 100 (0 no effect, 100 complete control)
[19] = 125 g ai/ha, scale 0 to 100 (0 no effect, 100 complete control)

CCOC(=O)c1nc(C2CC2)nc(N=CN(C)C)c1Br [Compound 40]
50: Corn plant response rating (corn (Zea mays); [18]) | Wheat plant response rating [2, 15] | Plant response rating, Barnyardgrass [3, 17] | Plant response rating, Surinam Grass [6, 17] | Blackgrass plant response rating [14, 19]
0: Corn plant response rating (corn (Zea mays); [15]) | Plant response rating, Corn (corn (Zea mays); [17]) | Morningglory plant response rating [1, 15] | Barnyardgrass plant response rating [3, 15] | Lambsquarters plant response rating [4, 15] | Velvetleaf plant response rating [5, 15] | Surinam Grass plant response rating [6, 15] | Cocklebur plant response rating [7, 15] | Crabgrass plant response rating [8, 15] | Pigweed plant response rating [9, 15] | Foxtail, Giant plant response rating [10, 15]
40: Plant response rating, Wheat [2, 17] | Oat, Wild plant response rating (wild oat (Avena fatua); [19])
20: Plant response rating, Foxtail, Giant [10, 17]
90: Plant response rating, Morningglory [1, 17] | Plant response rating, Barnyardgrass [3, 16] | Barnyardgrass plant response rating [3, 18] | Plant response rating, Velvetleaf [5, 16] | Plant response rating, Velvetleaf [5, 17] | Velvetleaf plant response rating [5, 18] | Plant response rating, Cocklebur [7, 16] | Plant response rating, Cocklebur [7, 17] | Plant response rating, Pigweed [9, 17]
100: Plant response rating, Morningglory [1, 16] | Morningglory plant response rating [1, 18] | Plant response rating, Lambsquarters [4, 16] | Plant response rating, Lambsquarters [4, 17] | Lambsquarters plant response rating [4, 18] | Cocklebur plant response rating [7, 18] | Plant response rating, Pigweed [9, 16] | Pigweed plant response rating [9, 18]
80: Plant response rating, Crabgrass [8, 16] | Crabgrass plant response rating [8, 18] | Foxtail, Giant plant response rating [10, 18] | Plant response rating, Ducksalad [11]
70: Plant response rating, Wheat [2, 18] | Plant response rating, Surinam Grass [6, 16] | Surinam Grass plant response rating [6, 18] | Plant response rating, Barnyardgrass [12] | Plant response rating, Sedge, Umbrella [13]
60: Plant response rating, Corn (corn (Zea mays); [16]) | Plant response rating, Wheat [2, 16] | Plant response rating, Crabgrass [8, 17] | Plant response rating, Foxtail, Giant [10, 16] | Plant response rating, Rice (rice (Oryza sativa)) | Plant response rating, Oat, Wild (wild oat (Avena fatua); 500 g ai/ha, scale 0 to 100) | Plant response rating, Blackgrass ([14]; 500 g ai/ha, scale 0 to 100)
